Molecules are shown by their SMILES.

In this experiment the target is T1, BTK (Homo sapiens, UniProt Q06187).
T1 construct: endogenous in cells; host or cells: Mino cells
T1 sequence (Q06187 whole entry): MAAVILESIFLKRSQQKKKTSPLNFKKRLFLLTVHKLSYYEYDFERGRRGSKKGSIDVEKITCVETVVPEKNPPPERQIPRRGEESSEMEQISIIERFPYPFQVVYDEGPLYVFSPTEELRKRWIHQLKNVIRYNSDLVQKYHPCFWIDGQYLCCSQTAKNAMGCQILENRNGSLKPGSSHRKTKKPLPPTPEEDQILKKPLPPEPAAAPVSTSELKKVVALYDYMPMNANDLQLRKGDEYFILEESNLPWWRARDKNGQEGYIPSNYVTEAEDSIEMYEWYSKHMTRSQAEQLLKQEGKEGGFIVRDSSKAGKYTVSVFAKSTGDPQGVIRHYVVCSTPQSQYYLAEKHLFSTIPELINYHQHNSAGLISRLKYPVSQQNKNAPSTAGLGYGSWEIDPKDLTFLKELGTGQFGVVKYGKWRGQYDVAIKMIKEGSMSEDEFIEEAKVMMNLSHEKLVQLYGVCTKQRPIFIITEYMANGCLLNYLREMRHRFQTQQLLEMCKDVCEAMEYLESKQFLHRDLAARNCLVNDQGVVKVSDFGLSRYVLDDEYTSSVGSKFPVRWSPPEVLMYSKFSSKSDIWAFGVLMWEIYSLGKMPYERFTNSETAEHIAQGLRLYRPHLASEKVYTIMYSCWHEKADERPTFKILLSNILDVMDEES
Put plainly: BTK degradation activity test in Mino cells. The settings on record: 16 h incubation, Western blot or Elisa. The format is cell-based. Put shortly: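 DC50 derived by curve fitting of BTK degradation rates versus untreated control across compound concentrations. Mino cells were exposed for 16 h; BTK levels in lysates, normalised via BCA protein, measured by Western blot or ELISA.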
Consider `CC(C)N1CCN(C2CCCN(c3nnc(C(N)=O)c(Nc4ccc(C5CCN(CC6CCN(c7ccc8c(c7)C(=O)N(C7CCC(=O)NC7=O)C8=O)CC6)CC5)cc4)n3)C2)C1=O` (centres unmarked) [Compound 055, 5-((4-(1-((1-(2-(2,6-dioxopiperidin-3-yl)-1,3-dioxoisoindol-5-yl)piperidin-4-yl)methyl)piperidin-4-yl)phenyl)amino)-3-(3-(3-isopropyl-2-oxoimidazolin-1-yl)piperidin-1-yl)-1,2,4-triazin-6-carboxamide], for which the DC50 is < 1 nM.

Take `NC(=O)c1nnc(N2CCCC(N3CCN(C4CCC4)C3=O)C2)nc1Nc1ccc(C2CCN(CC3CCN(c4ccc5c(c4)C(=O)N(C4CCC(=O)NC4=O)C5=O)CC3)CC2)cc1` (centres unmarked) [Compound 059, 3-(3-(3-cyclobutyl-2-oxoimidazolin-1-yl)piperidin-1-yl)-5-((4-(1-((1-(2-(2,6-dioxopiperidin-3-yl)-1,3-dioxoisoindol-5-yl)piperidin-4-yl)methyl)piperidin-4-yl)phenyl)amino)-1,2,4-triazin-6-carboxamide]: the DC50 is > 1 nM.

For `NC(=O)c1ncc(N2CCCC(N3CCN(C4COC4)C3=O)C2)nc1Nc1ccc(N2CCN(C3CN(c4ccc5c(c4)C(=O)N(C4CCC(=O)NC4=O)C5=O)C3)CC2)cc1` (centres unmarked) [Compound 015, 3-((4-(4-(1-(2-(2,6-dioxopiperidin-3-yl)-1,3-dioxoisoindol-5-yl)azetidin-3-yl)piperazin-1-yl)phenyl)amino)-5-(3-(3-(oxetan-3-yl)-2-oxoimidazolin-1-yl)piperidin-1-yl) pyrazin-2-carboxamide], the DC50 was < 1 nM.

Turning to `CN1CCN([C@@H]2CCCN(c3nnc(C(N)=O)c(Nc4ccc(N5CCN(CC6CCN(c7ccc(NC8CCC(=O)NC8=O)cc7C(F)(F)F)CC6)CC5)c(F)c4)n3)C2)C1=O` (some centres unmarked) [Compound 252], the half-maximal degradation concentration (DC50) is < 1 nM.

On to `CN1CCN([C@@H]2CCCN(c3nnc(C(N)=O)c(Nc4ccc(N5CCN(CC6CCN(c7ccc(C(=O)NC8CCC(=O)NC8=O)cn7)CC6)CC5)c(F)c4)n3)C2)C1=O` (stereo partly drawn) [Compound 175, 5-((4-(4-((1-(5-((2,6-dioxopiperidin-3-yl)carbamoyl)pyridin-2-yl)piperidin-4-yl)methyl)piperazin-1-yl)-3-fluorophenyl)amino)-3-((R)-3-(3-methyl-2-oxoimidazolidin-1-yl)piperidin-1-yl)-1,2,4-triazin-6-carboxamide], for which the 50% degradation concentration (DC50) was < 1 nM.

Consider `CN1C(=O)N(C2CCCN(c3cnc(C(N)=O)c(Nc4ccc(C5(C)CCN(C6CN(c7ccc8c(c7)C(=O)N(C7CCC(=O)NC7=O)C8=O)C6)CC5)cc4)n3)C2)C2CCCCC21` (centres unmarked) [Compound 009, 3-((4-(1-(1-(2-(2,6-dioxopiperidin-3-yl)-1,3-dioxoisoindol-5-yl)azetidin-3-yl)-4-methylpiperidin-4-yl)phenyl)amino)-5-(3-(3-methyl-2-oxooctahydro-1H-benzo[d]imidazol-1-yl)piperidin-1-yl)pyrazin-2-carboxamide], for which the half-maximal degradation concentration (DC50) was < 1 nM.

As for `CN1CCN([C@@H]2CCCN(c3nnc(C(N)=O)c(Nc4ccc(N5CCN(C[C@H]6CCN(c7ccc(C(=O)N[C@H]8CCC(=O)NC8=O)nc7)C6)CC5)c(F)c4)n3)C2)C1=O` [Compound 153, 5-((4-(4-(((R)-1-(6-(((S)-2,6-dioxopiperidin-3-yl)carbamoyl)pyridin-3-yl)pyrrolidin-3-yl)methyl)piperazin-1-yl)-3-fluorophenyl)amino)-3-((R)-3-(3-methyl-2-oxoimidazolin-1-yl)piperidin-1-yl)-1,2,4-triazin-6-carboxamide], the DC50 was < 1 nM.

Take `CN1CCN(C2CCCN(c3nnc(C(N)=O)c(Nc4ccc(C5CCN(CC6CCN(c7cc8c(cc7F)C(=O)N(C7CCC(=O)NC7=O)C8=O)CC6)CC5)cc4)n3)C2)C1=O` (centres unmarked) [Compound 085, 5-((4-(1-((1-(2-(2,6-dioxopiperidin-3-yl)-6-fluoro-1,3-dioxoisoindol-5-yl)piperidin-4-yl)methyl)piperidin-4-yl)phenyl)amino)-3-(3-(3-methyl-2-oxoimidazolin-1-yl)piperidin-1-yl)-1,2,4-triazin-6-carboxamide]: the DC50 was < 1 nM.

For the compound `NC(=O)c1ncc(N2CCCC(N3CCN(C4COC4)C3=O)C2)nc1Nc1ccc(N2CCC3(CC2)CC(N2CCN(c4ccc5c(c4)C(=O)N(C4CCC(=O)NC4=O)C5=O)CC2)C3)cc1` (centres unmarked) [Compound 019], the DC50 is > 1 nM.

As for `CN1CCN(C2CCCN(c3nnc(C(N)=O)c(Nc4ccc(C5(C)CCN(C6CCN(c7ccc8c(c7)C(=O)N(C7CCC(=O)NC7=O)C8=O)CC6)CC5)cc4)n3)C2)C1=O` (centres unmarked) [Compound 078, 5-((4-(1′-(2-(2,6-dioxopiperidin-3-yl)-1,3-dioxoisoindol-5-yl)-4-methyl-[1,4′-bipiperidin]-4-yl)phenyl)amino)-3-(3-(3-methyl-2-oxoimidazolidin-1-yl)piperidin-1-yl)-1,2,4-triazin-6-carboxamide], the DC50 is < 1 nM.

Regarding `CC1(c2ccc(Nc3nc(N4CCCC(n5cc6ccccn6c5=O)C4)cnc3C(N)=O)cc2)CCN(C2CN(c3ccc4c(c3)C(=O)N(C3CCC(=O)NC3=O)C4=O)C2)CC1` (centres unmarked) [Compound 026, 3-((4-(1-(1-(2-(2,6-dioxopiperidin-3-yl)-1,3-dioxoisoindolin-5-yl)azetidin-3-yl)-4-methylpiperidin-4-yl)phenyl)amino)-5-(3-(3-oxoimidazo[1,5-a]pyridin-2(3H)-yl)piperidin-1-yl)pyrazin-2-carboxamide], the DC50 was > 1 nM.

As to `CN1CCN([C@@H]2CCCN(c3nnc(C(N)=O)c(Nc4ccc(N5CCN(CC6CCN(c7ccc(N8CCC(=O)NC8=O)c8c7OCCO8)CC6)CC5)c(F)c4)n3)C2)C1=O` [Compound 193, (R)-5-((4-(4-((1-(8-(2,4-dioxotetrahydropyrimidin-1(2H)-yl)-2,3-dihydrobenzo[b][1,4]dioxan-5-yl)piperidin-4-yl)methyl)piperazin-1-yl)-3-fluorophenyl)amino)-3-(3-(3-methyl-2-oxoimidazolidin-1-yl)piperidin-1-yl)-1,2,4-triazin-6-carboxamide], the half-maximal degradation concentration (DC50) is < 1 nM.

Consider `NC(=O)c1nnc(N2CCCC(N3CCN(c4ccccc4F)C3=O)C2)nc1Nc1ccc(C2CCN(CC3CCN(c4ccc5c(c4)C(=O)N(C4CCC(=O)NC4=O)C5=O)CC3)CC2)cc1` (centres unmarked) [Compound 065, 5-((4-(1-((1-(2-(2,6-dioxopiperidin-3-yl)-1,3-dioxoisoindol-5-yl)piperidin-4-yl)methyl)piperidin-4-yl)phenyl)amino)-3-(3-(3-(2-fluorophenyl)-2-oxoimidazolin-1-yl)piperidin-1-yl)-1,2,4-triazin-6-carboxamide], for which the half-maximal degradation concentration (DC50) was < 1 nM.

With `CN1CCN([C@@H]2CCCN(c3nnc(C(N)=O)c(Nc4ccc(N5CCN(CC6CCN(c7ccc(NC8CCC(=O)NC8=O)cn7)C6)CC5)c(F)c4)n3)C2)C1=O` (stereo partly drawn) [Compound 201, 5-((4-(4-((1-(5-((2,6-dioxopiperidin-3-yl)amino)pyridin-2-yl)pyrrolidin-3-yl)methyl)piperazin-1-yl)-3-fluorophenyl)amino)-3-((R)-3-(3-methyl-2-oxoimidazolidin-1-yl)piperidin-1-yl)-1,2,4-triazin-6-carboxamide], the DC50 was < 1 nM.

Consider `CN1CCN([C@@H]2CCCN(c3nnc(C(N)=O)c(Nc4ccc(N5CCN(CC6CCN(c7ccc(N8CCC(=O)NC8=O)cc7S(C)(=O)=O)CC6)CC5)c(F)c4)n3)C2)C1=O` [Compound 197, (R)-5-((4-(4-((1-(4-(2,4-dioxotetrahydropyrimidin-1(2H)-yl)-2-(methylsulfonyl)phenyl)piperidin-4-yl)methyl)piperazin-1-yl)-3-fluorophenyl)amino)-3-(3-(3-methyl-2-oxoimidazolidin-1-yl)piperidin-1-yl)-1,2,4-triazin-6-carboxamide], for which the half-maximal degradation concentration (DC50) is < 1 nM.

Turning to `CN1CCN([C@@H]2CCCN(c3nnc(C(N)=O)c(Nc4ccc(N5CCN(C#Cc6ccc(C(=O)NC7CCC(=O)NC7=O)c(F)c6)CC5)c(F)c4)n3)C2)C1=O` (stereo partly drawn) [Compound 225, 5-((4-(4-((4-((2,6-dioxopiperidin-3-yl)carbamoyl)-3-fluorophenyl)ethynyl)piperazin-1-yl)-3-fluorophenyl)amino)-3-((R)-3-(3-methyl-2-oxoimidazolidin-1-yl)piperidin-1-yl)-1,2,4-triazin-6-carboxamide], the 50% degradation concentration (DC50) was < 1 nM.

`CN1CCN([C@@H]2CCCN(c3nnc(C(N)=O)c(Nc4ccc(N5CCN(CC6CCN(c7ccc8c(c7)C(=O)N(C7CCC(=O)NC7=O)C8=O)CC6)CC5)c(Cl)c4)n3)C2)C1=O` (stereo partly drawn) [Compound 164, 5-((3-chloro-4-(4-((1-(2-(2,6-dioxopiperidin-3-yl)-1,3-dioxoisoindolin-5-yl)piperidin-4-yl)methyl)piperazin-1-yl)phenyl)amino)-3-((R)-3-(3-methyl-2-oxoimidazolidin-1-yl)piperidin-1-yl)-1,2,4-triazin-6-carboxamide]: the 50% degradation concentration (DC50) is < 1 nM.

As to `CC1(c2ccc(Nc3nc(N4CCCC(N5CCN(C6CCCCC6)C5=O)C4)cnc3C(N)=O)cc2)CCN(C2CN(c3ccc4c(c3)C(=O)N(C3CCC(=O)NC3=O)C4=O)C2)CC1` (centres unmarked) [Compound 003, 5-(3-(3-cyclohexyl-2-oxoimidazolin-1-yl)piperidin-1-yl)-3-((4-(1-(1-(2-(2,6-dioxopiperidin-3-yl)-1,3-dioxoisoindol-5-yl)azetidin-3-yl)-4-methylpiperidin-4-yl)phenyl)amino)pyrazin-2-carboxamide], the 50% degradation concentration (DC50) was < 1 nM.

In the case of `NC(=O)c1nnc(N2CCCC(N3CC4CCCN4C3=O)C2)nc1Nc1ccc(C2CCN(CC3CCN(c4ccc5c(c4)C(=O)N(C4CCC(=O)NC4=O)C5=O)CC3)CC2)cc1` (centres unmarked) [Compound 070, 5-((4-(1-((1-(2-(2,6-dioxopiperidin-3-yl)-1,3-dioxoisoindol-5-yl)piperidin-4-yl)methyl)piperidin-4-yl)phenyl)amino)-3-(3-(3-oxytrihydro-1H-pyrrolo[1,2-c]imidazol-2(3H)-yl)piperidin-1-yl)-1,2,4-triazin-6-carboxamide], the DC50 is < 1 nM.

For `CN1CCN([C@@H]2CCCN(c3nnc(C(N)=O)c(Nc4ccc(N5CCN(CC6CCN(c7ccn8c(N9CCC(=O)NC9=O)cnc8c7)CC6)CC5)c(F)c4)n3)C2)C1=O` [Compound 245], the half-maximal degradation concentration (DC50) was < 1 nM.
